These results are taken from patent publication US20230107941A1, “HEPATITIS B CAPSID ASSEMBLY MODULATORS” (Venatorx Pharmaceuticals, Inc., priority 2019, published 2023).

For data set [1], the system named is HBV. Description: In vitro antiviral assay: anti-HBV replication in HepAD38 cells (extracellular HBV DNA by QPCR). The data set is classed as cell-based, hepatitis B virus (genotype D, serotype ayw). The following applies: Hepatitis B virus, HePAD38, 168 h, 7 days incubation, extracellular HBV DNA by QPCR, read-out: Anti-HBV EC50. An outline of the steps:
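Read-out is extracellular HBV DNA (copies/mL, QPCR standard curve) after 7-day exposure of tet-free HepAD38 cells to 10-fold dilutions from 1 μM down to 10 pM. Values normalised to DMSO vehicle; EC50 from 4-parameter nonlinear regression, with entecavir validating each run.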

Data set [2] in a line: In vitro cytotoxicity assay (MTT cell viability) in HepG2 cells. In kind it is cell-based, human. The following applies: human. In short, it runs like this: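 CC50 was derived by 4-parameter fit of viability relative to vehicle controls, measured as MTT formazan absorbance at 492 nm after 3–4 h of reagent and DMSO solubilization. Before that, HepG2 cells seeded overnight at 20,000/well were incubated 7 days at 37°C with compound from 30 μM down to 1.0 nM in half-log steps.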

Structures are written as SMILES. A value given as a limit tells only on which side of the number the result lay.

Regarding `CC(=O)N1CC[C@@H](NC(=O)C(=O)c2c(C)c(C(=O)Nc3ccc(F)c(C)c3)c(C)n2C)C[C@H]1C` [Example 165, 5-(2-(((2R,4R)-1-acetyl-2-methylpiperidin-4-yl)amino)-2-oxoacetyl)-N-(4-fluoro-3-methylphenyl)-1,2,4-trimethyl-1H-pyrrole-3-carboxamide], in data set [1], the EC50 was < 50 nM. Also, the CC50 at 7 days in data set [2] was > 30 µM.
In the same order, the values of `Cc1cc(NC(=O)c2c(C)c(C(=O)C(=O)N[C@]3(C)CC[C@H](O)CC3)n(C)c2C2CCCCC2)ccc1F` [Example 118, 2-cyclohexyl-N-(4-fluoro-3-methylphenyl)-5-(2-(((1s,4s)-4-hydroxy-1-methylcyclohexyl)amino)-2-oxoacetyl)-1,4-dimethyl-1H-pyrrole-3-carboxamide] are 500 to 1000 nM and > 30 µM.
In the case of `Cc1cc(F)cc(NC(=O)c2c(C)c(C(=O)C(=O)NC(C)(C)C)n(C)c2C)c1` [Example 67, 5-(2-(tert-butylamino)-2-oxoacetyl)-N-(3-fluoro-5-methylphenyl)-1,2,4-trimethyl-1H-pyrrole-3-carboxamide], the EC50 in data set [1] was < 50 nM. In data set [2], the half-maximal cytotoxic concentration (CC50) at 7 days was > 30 µM.
In the same order, the values of `Cc1cc(NC(=O)c2c(C)c(C(=O)C(=O)NC3(CC(=O)O)CCNCC3)n(C)c2C)ccc1F` [Example 145, 2-(4-(2-(4-((4-fluoro-3-methylphenyl)carbamoyl)-1,3,5-trimethyl-1H-pyrrol-2-yl)-2-oxoacetamido)piperidin-4-yl)acetic acid] are 50 to 499 nM and > 30 µM.
For `CC(=O)N1CC[C@@H](NC(=O)C(=O)c2c(C)c(C(=O)Nc3ccc(F)c(C)c3)c(C)n2C)[C@H](O)C1` [Example 167, 5-(2-(((3R,4R)-1-acetyl-3-hydroxypiperidin-4-yl)amino)-2-oxoacetyl)-N-(4-fluoro-3-methylphenyl)-1,2,4-trimethyl-1H-pyrrole-3-carboxamide], the concentration for a half-maximal effect (EC50) in data set [1] fell in the range of 500 to 1000 nM. Moreover, in data set [2], the 50% cytotoxic concentration (CC50) at 7 days is > 30 µM.
With `Cc1cc(NC(=O)c2c(C)c(C(=O)C(=O)NC34CC(O)(C3)C4)n(C)c2C)ccc1F` [Example 82, N-(4-fluoro-3-methylphenyl)-5-(2-((3-hydroxybicyclo[1.1.1]pentan-1-yl)amino)-2-oxoacetyl)-1,2,4-trimethyl-1H-pyrrole-3-carboxamide], the concentration for a half-maximal effect (EC50) in data set [1] was < 50 nM. Further, in data set [2], the CC50 at 7 days is > 30 µM.
In the same order, the values of `Cc1cc(NC(=O)c2c(C)c(C(=O)C(=O)N[C@H]3CC[C@@H](S(C)(=O)=O)CC3)n(C)c2C2CC2)ccc1F` [Example 129, 2-cyclopropyl-N-(4-fluoro-3-methylphenyl)-1,4-dimethyl-5-(2-(((1s,4s)-4-(methylsulfonyl)cyclohexyl)amino)-2-oxoacetyl)-1H-pyrrole-3-carboxamide] are < 50 nM and > 30 µM.
In the same order, the values of `Cc1c(C(=O)Nc2ccc(F)c(C3CC3)c2)c(C)n(C)c1C(=O)C(=O)N[C@]1(C)CC[C@@H](O)CC1` [Example 136, N-(3-cyclopropyl-4-fluorophenyl)-5-(2-(((1r,4r)-4-hydroxy-1-methylcyclohexyl)amino)-2-oxoacetyl)-1,2,4-trimethyl-1H-pyrrole-3-carboxamide] are < 50 nM and > 30 µM.
In the same order, the values of `CC(=O)N1CC[C@@H](NC(=O)C(=O)c2c(C)c(C(=O)Nc3ccc(F)c(C)c3)c(C)n2C)C(C)(C)C1` [Example 149, (R)-5-(2-((1-acetyl-3,3-dimethylpiperidin-4-yl)amino)-2-oxoacetyl)-N-(4-fluoro-3-methylphenyl)-1,2,4-trimethyl-1H-pyrrole-3-carboxamide] are < 50 nM and > 30 µM.
`Cc1c(C(=O)Nc2cccc(B(O)O)c2)c(C)n(C)c1C(=O)C(=O)NC(C)(C)C` [Example 46, (3-(5-(2-(tert-butylamino)-2-oxoacetyl)-1,2,4-trimethyl-1H-pyrrole-3-carboxamido)phenyl)boronic acid]: the EC50 in data set [1] lay within 500 to 1000 nM. Further, the CC50 at 7 days in data set [2] was > 30 µM.
`Cc1cc(NC(=O)c2c(C3CC3)c(C(=O)C(=O)N[C@]3(C)CC[C@@H](O)CC3)n(C)c2C)ccc1F` [Example 102, 4-cyclopropyl-N-(4-fluoro-3-methylphenyl)-5-(2-(((1r,4r)-4-hydroxy-1-methylcyclohexyl)amino)-2-oxoacetyl)-1,2-dimethyl-1H-pyrrole-3-carboxamide]: the EC50 in data set [1] is < 50 nM. Besides, the CC50 at 7 days in data set [2] was > 30 µM.
On to `Cc1cc(NC(=O)c2c(C)c(C(=O)C(=O)N[C@H]3CC[C@@H](S(C)(=O)=O)CC3)n(C)c2-c2ccncc2)ccc1F` [Example 160, N-(4-fluoro-3-methylphenyl)-1,4-dimethyl-5-(2-(((1s,4s)-4-(methylsulfonyl)cyclohexyl)amino)-2-oxoacetyl)-2-(pyridin-4-yl)-1H-pyrrole-3-carboxamide], for which the EC50 in data set [1] is > 1000 nM. Also, in data set [2], the CC50 at 7 days was > 30 µM.
In the same order, the values of `Cc1c(C(=O)N2CCC(C)(O)CC2)c(C)n(C)c1C(=O)C(=O)NC(C)(C)C` [Example 61, N-(tert-butyl)-2-(4-(4-hydroxy-4-methylpiperidine-1-carbonyl)-1,3,5-trimethyl-1H-pyrrol-2-yl)-2-oxoacetamide] are 500 to 1000 nM and > 30 µM.
`Cc1cc(NC(=O)c2c(C)c(C(=O)C(=O)N[C@@H]3C[C@@H](C(=O)O)N(C)C3)n(C)c2C)ccc1F` [Example 171, (2S,4R)-4-(2-(4-((4-fluoro-3-methylphenyl)carbamoyl)-1,3,5-trimethyl-1H-pyrrol-2-yl)-2-oxoacetamido)-1-methylpyrrolidine-2-carboxylic acid]: the concentration giving a half-maximal response (EC50) in data set [1] is > 1000 nM. For the same molecule, the CC50 at 7 days in data set [2] is > 30 µM.
In the same order, the values of `CCc1c(C(=O)Nc2ccc(F)c(C)c2)c(C)n(C)c1C(=O)C(=O)NCC(C)(C)O` [Example 88, 4-ethyl-N-(4-fluoro-3-methylphenyl)-5-(2-((2-hydroxy-2-methylpropyl)amino)-2-oxoacetyl)-1,2-dimethyl-1H-pyrrole-3-carboxamide] are 500 to 1000 nM and > 30 µM.
With `Cc1c(C(=O)Nc2cc(Cl)nc(Cl)c2)c(C)n(C)c1C(=O)C(=O)N[C@]1(C)CC[C@H](O)CC1` [Example 11, N-(2,6-dichloropyridin-4-yl)-5-(2-(((1s,4s)-4-hydroxy-1-methylcyclohexyl)amino)-2-oxoacetyl)-1,2,4-trimethyl-1H-pyrrole-3-carboxamide], in data set [1], the EC50 is < 50 nM. Also, in data set [2], the CC50 at 7 days is > 30 µM.
In the same order, the values of `Cc1c(C(=O)Nc2cc(Cl)nc(Cl)c2)c(C)n(C)c1C(=O)C(=O)N[C@]1(C)CC[C@@H](O)CC1` [Example 9, N-(2,6-dichloropyridin-4-yl)-5-(2-(((1r,4r)-4-hydroxy-1-methylcyclohexyl)amino)-2-oxoacetyl)-1,2,4-trimethyl-1H-pyrrole-3-carboxamide] are < 50 nM and > 30 µM.
On to `Cc1cc(NC(=O)c2c(C)c(C(=O)C(=O)NC3(CO)CCN(C(=O)c4cnn(C)c4)CC3)n(C)c2C)ccc1F` [Example 74, N-(4-fluoro-3-methylphenyl)-5-(2-((4-(hydroxymethyl)-1-(1-methyl-1H-pyrazole-4-carbonyl)piperidin-4-yl)amino)-2-oxoacetyl)-1,2,4-trimethyl-1H-pyrrole-3-carboxamide], for which the EC50 in data set [1] was < 50 nM. For the same molecule, the CC50 at 7 days in data set [2] was > 30 µM.
As for `Cc1c(C(=O)NC2COCCOC2)c(C)n(C)c1C(=O)C(=O)NC(C)(C)C` [Example 48, 5-(2-(tert-butylamino)-2-oxoacetyl)-N-(1,4-dioxepan-6-yl)-1,2,4-trimethyl-1H-pyrrole-3-carboxamide], the EC50 in data set [1] was > 1000 nM. For the same molecule, the CC50 at 7 days in data set [2] was > 30 µM.
In the same order, the values of `CCC1(NC(=O)C(=O)c2c(C)c(C(=O)Nc3ccc(F)c(C)c3)c(C)n2C)CCN(C(=O)c2ccnn2C)CC1` [Example 39, 5-(2-((4-ethyl-1-(1-methyl-1H-pyrazole-5-carbonyl)piperidin-4-yl)amino)-2-oxoacetyl)-N-(4-fluoro-3-methylphenyl)-1,2,4-trimethyl-1H-pyrrole-3-carboxamide] are < 50 nM and > 30 µM.
In the same order, the values of `CC(=O)N1CC[C@@H](NC(=O)C(=O)c2c(C)c(C(=O)Nc3ccc(F)c(C)c3)c(C)n2C)[C@H](F)C1` [Example 147, 5-(2-(((3R,4R)-1-acetyl-3-fluoropiperidin-4-yl)amino)-2-oxoacetyl)-N-(4-fluoro-3-methylphenyl)-1,2,4-trimethyl-1H-pyrrole-3-carboxamide] are < 50 nM and > 30 µM.
Take `CCC(CC)NC(=O)C(=O)c1c(C)c(C(=O)Nc2ccc(F)c(C)c2)c(C)n1C` [Example 188, N-(4-fluoro-3-methylphenyl)-1,2,4-trimethyl-5-(2-oxo-2-(pentan-3-ylamino)acetyl)-1H-pyrrole-3-carboxamide]: the EC50 in data set [1] was < 50 nM. The molecule further had a CC50 at 7 days in data set [2] of 5 to 30 µM.
On to `Cc1cc(NC(=O)c2c(C)c(C(=O)C(=O)NC3CC(S(C)(=O)=O)C3)n(C)c2C)ccc1F` (stereo not drawn) [Example 31, N-(4-fluoro-3-methylphenyl)-1,2,4-trimethyl-5-(2-(((1s,3s)-3-(methylsulfonyl)cyclobutyl)amino)-2-oxoacetyl)-1H-pyrrole-3-carboxamide], for which the EC50 in data set [1] was < 50 nM. Also, the CC50 at 7 days in data set [2] is > 30 µM.
In the same order, the values of `Cc1cc(NC(=O)c2c(C)c(C(=O)C(=O)NCC(C)(C)O)n(C)c2CC2CC2)ccc1F` [Example 127, 2-(cyclopropylmethyl)-N-(4-fluoro-3-methylphenyl)-5-(2-((2-hydroxy-2-methylpropyl)amino)-2-oxoacetyl)-1,4-dimethyl-1H-pyrrole-3-carboxamide] are < 50 nM and 5 to 30 µM.

In general, EC50 refers to the concentration giving half of the maximal effect. By CC50 is commonly meant the concentration that lowers cell viability or growth by half.
